Literature values as cited in PMC2714898 (European Journal of Clinical Pharmacology, 2009).

half-life [h] | elimination half-life (t½) (averages, after oral AS) [h] | Compound
60 to 437 | – | CCNCc1cc(Nc2ccnc3cc(Cl)ccc23)ccc1O [Desethylamodiaquine (DEAQ), N-desethylamodiaquine]
– | 0.65 to 2.59 | C[C@H]1[C@@H](O)O[C@@H]2O[C@@]3(C)CC[C@H]4[C@H](C)CC[C@@H]1[C@@]24OO3 [Dihydroartemisinin (DHA), dihydroartemisinin]
